The values that follow are results of earlier work, collected in PMC4411882, “Developmental Potential for Endomorphin Opioidmimetic Drugs” (International Journal of Medicinal Chemistry, 2012).

Where a SMILES comes first, the peptide text is derived from it. [ ]: non-standard residue; d: D form. The star is where a group is joined. Dmt = Cc1cc(O)cc(C)c1C[CH](N)C(=O)O; NHPhenethyl = c1ccc(CCN*)cc1

Data set [1] has as its target δ-opioid receptor (Rattus norvegicus, UniProt P33533). Further details: gene Oprd1; rat brain P2 synaptosomal preparations; species or system rat brain P2 synaptosomal preparations. The following applies: read-out: Kiδ.
For data set [2], the target named is T1, δ-opioid receptor (MVD) (Mus musculus, UniProt P32300).
T1 construct: gene Oprd1; mouse vas deferens (MVD) bioassay
Also on record: species or system mouse vas deferens. The text has this: (§1) Therefore, we substituted hydrophobic groups in lieu of the phenethyl group to develop the class of H-Dmt-Pro-Phe-NH-X ligands (Figure 1).

The target in data set [3] is T2, μ-opioid receptor (GPI) (Cavia porcellus, UniProt P97266).
T2 construct: gene OPRM1; guinea pig ileum (GPI) bioassay
Also on record: species or system guinea pig ileum.
Description: as §1

Data set [4] has as its target μ-opioid receptor (Rattus norvegicus, UniProt P33535). Also on record: gene Oprm1; rat brain P2 synaptosomal preparations; species or system rat brain P2 synaptosomal preparations. The following applies: read-out: Kiμ.

Chain of μ-opioid receptor (P33535 whole entry): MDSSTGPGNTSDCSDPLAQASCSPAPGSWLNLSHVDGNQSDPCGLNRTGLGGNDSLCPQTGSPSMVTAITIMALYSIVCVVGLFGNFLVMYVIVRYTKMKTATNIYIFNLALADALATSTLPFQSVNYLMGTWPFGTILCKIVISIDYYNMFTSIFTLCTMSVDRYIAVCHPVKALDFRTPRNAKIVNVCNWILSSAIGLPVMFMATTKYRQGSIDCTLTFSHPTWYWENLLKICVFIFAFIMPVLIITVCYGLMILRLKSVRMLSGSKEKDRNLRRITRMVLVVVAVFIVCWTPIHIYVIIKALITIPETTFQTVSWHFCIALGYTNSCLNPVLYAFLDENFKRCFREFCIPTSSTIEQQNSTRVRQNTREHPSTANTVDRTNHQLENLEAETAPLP
Chain of δ-opioid receptor (P33533 whole entry): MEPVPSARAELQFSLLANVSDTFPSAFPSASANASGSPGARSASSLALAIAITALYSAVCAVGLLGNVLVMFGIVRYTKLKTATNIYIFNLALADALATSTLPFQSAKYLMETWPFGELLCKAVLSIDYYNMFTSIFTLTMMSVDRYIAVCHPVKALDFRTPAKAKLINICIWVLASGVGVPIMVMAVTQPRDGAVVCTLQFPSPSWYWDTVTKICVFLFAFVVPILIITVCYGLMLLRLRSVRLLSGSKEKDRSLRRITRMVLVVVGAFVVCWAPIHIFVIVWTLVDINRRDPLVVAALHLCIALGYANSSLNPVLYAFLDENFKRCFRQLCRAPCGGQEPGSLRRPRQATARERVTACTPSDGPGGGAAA
T2 sequence (P97266 whole entry): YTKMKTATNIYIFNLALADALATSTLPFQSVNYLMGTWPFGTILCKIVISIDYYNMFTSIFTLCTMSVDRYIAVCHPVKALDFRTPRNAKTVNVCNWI
T1 sequence (P32300 whole entry): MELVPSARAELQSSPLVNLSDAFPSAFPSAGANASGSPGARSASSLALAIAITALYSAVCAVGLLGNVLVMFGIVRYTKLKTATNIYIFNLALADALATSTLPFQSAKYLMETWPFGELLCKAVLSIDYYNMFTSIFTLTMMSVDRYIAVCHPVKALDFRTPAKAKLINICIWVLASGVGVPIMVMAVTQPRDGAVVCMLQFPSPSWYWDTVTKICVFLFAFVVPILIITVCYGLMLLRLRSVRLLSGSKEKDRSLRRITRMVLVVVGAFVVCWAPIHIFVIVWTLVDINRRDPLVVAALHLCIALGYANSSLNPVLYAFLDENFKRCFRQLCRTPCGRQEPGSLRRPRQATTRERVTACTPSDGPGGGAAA

For `Cc1cc(O)cc(C)c1C[C@H](N)C(=O)NCCNC(=O)[C@@H](N)Cc1c(C)cc(O)cc1C` [compound 51, Dmt-NH-(CH2)2-NH-Dmt], the Ki is 116 nM in data set [1] and 1.43 nM in data set [4]. Further, the IC50 (commonly the concentration that gives 50% inhibition) in data set [2] was more than 10000 nM; in data set [3] it was 2840 nM.
With `Cc1cc(O)cc(C)c1CC(N)C(=O)N1Cc2ccccc2CC1C(=O)NCCCCc1[nH]c(=O)c(CCCCNC(=O)C2Cc3ccccc3CN2C(=O)C(N)Cc2c(C)cc(O)cc2C)nc1C` (stereo not drawn) [compound 62, 3,6-bis[Dmt-Tic-NH(CH2)4]-5-methyl-2(1H)-pyrazinone], the Ki in data set [1] was 0.323 nM; in data set [4] it was 1.74 nM. The IC50 in data set [2] and in data set [3] was more than 10000 nM in each case.
In the case of `Cc1cc(O)cc(C)c1C[C@H](N)C(=O)N1CCC[C@H]1C(=O)N[C@@H](Cc1ccccc1)C(=O)Nc1cnc2ccccc2c1` [compound 29, H-Dmt-Pro-Phe-NH-3-Qln], the Ki in data set [1] was 190 nM; in data set [4] it was 0.33 nM. Also, the IC50 in data set [2] was more than 10000 nM; in data set [3], 9.14 nM.
In the case of `Cc1cc(O)cc(C)c1CC(C(=O)N1Cc2ccccc2CC1C(=O)NCCCCCCNC(=O)C1Cc2ccccc2CN1C(=O)C(Cc1c(C)cc(O)cc1C)N(C)C)N(C)C` (stereo not drawn) [compound 69, bis[N,N-dimethyl-Dmt-Tic-NH]hexane], the Ki in data set [1] was 0.06 nM; in data set [4] it was 2.21 nM. Also, the IC50 in data set [2] and in data set [3] was more than 10000 nM in each case.
For `Cc1cc(O)cc(C)c1CC(N)C(=O)N1Cc2ccccc2CC1C(=O)NCCCCc1[nH]c(=O)c(CCCNC(=O)C2Cc3ccccc3CN2C(=O)C(N)Cc2c(C)cc(O)cc2C)nc1C` (stereo not drawn) [compound 63, 3-[Dmt-Tic-NH(CH2)3]-6-[Dmt-Tic-NH(CH2)4]-5-methyl-2(1H)-pyrazinone], the Ki in data set [1] is 0.16 nM; in data set [4] it was 1.56 nM. In addition, the IC50 in data set [2] and in data set [3] was more than 10000 nM in each case.
On to `Cc1cc(O)cc(C)c1CC(N)C(=O)NCc1[nH]c(=O)c(CNC(=O)C(N)Cc2c(C)cc(O)cc2C)nc1C` (stereo not shown) [compound 55, 3,6-bis[Dmt-NH-CH2]-5-methyl-2(1H)-pyrazinone], for which the Ki is 15.7 nM in data set [1] and 1.16 nM in data set [4]. The half-inhibitory concentration (IC50) was more than 10000 nM in data set [2] and 1700 nM in data set [3].
On to `C=CCN[C@@H](Cc1c(C)cc(O)cc1C)C(=O)N1CCC[C@H]1C(=O)N[C@@H](Cc1c[nH]c2ccccc12)C(=O)N[C@@H](Cc1ccccc1)C(N)=O` [compound 47, [N-allyl-Dmt^1]EM-1], for which the Ki is 10.3 nM in data set [1] and 0.26 nM in data set [4]. Also, the 50% inhibitory concentration (IC50) in data set [2] and in data set [3] was more than 10000 nM each time.
On to `Cc1cc(O)cc(C)c1CC(N)C(=O)NCCCc1[nH]c(=O)c(CCCNC(=O)C(N)Cc2c(C)cc(O)cc2C)nc1C` (stereo not shown) [compound 57, 3,6-bis[Dmt-NH(CH2)3]-5-methyl-2(1H)-pyrazinone], for which the Ki is 13.2 nM in data set [1] and 0.042 nM in data set [4]. The IC50 in data set [2] was more than 10000 nM; in data set [3], 1.33 nM.
For `Cc1cc(O)cc(C)c1CC(N)C(=O)N1CCCC1C(=O)NC(Cc1ccccc1)C(N)=O` (stereo not drawn) [compound 21, H-Dmt-Pro-Phe-NH2] (H-[Dmt]-Pro-Phe-NH2; configuration not given here), the Ki in data set [1] is 53.2 nM; in data set [4] it was 0.12 nM. Further, the IC50 is 113 nM in data set [2] and 2.33 nM in data set [3].
As for `Cc1cc(O)cc(C)c1C[C@H](N)C(=O)N1CCC[C@H]1C(=O)N[C@@H](Cc1ccccc1)C(=O)Nc1ccccn1` [compound 27, H-Dmt-Pro-Phe-NH-2-Pyr], the Ki in data set [1] was 157 nM; in data set [4] it was 0.13 nM. Moreover, the IC50 in data set [2] is more than 10000 nM; in data set [3] it was 15 nM.
Take `Cc1cc(O)cc(C)c1C[C@H](N)C(=O)NCCCCNC(=O)[C@@H](N)Cc1c(C)cc(O)cc1C` [compound 52, Dmt-NH-(CH2)4-NH-Dmt]: the Ki is 53.4 nM in data set [1] and 0.041 nM in data set [4]. For the same compound, the concentration for half-maximal inhibition (IC50) in data set [2] is more than 10000 nM; in data set [3] it was 5.33 nM.
For H-Dmt-Pro-Mmp-Phe-NH2 [compound 40], the results for the Ki in data set [1] and in data set [4] were 4.61 nM and 0.18 nM, respectively. The IC50 in data set [2] is more than 10000 nM; in data set [3], 0.16 nM.
For `Cc1cc(O)cc(C)c1CC(N)C(=O)N1Cc2ccccc2CC1C(=O)NCCCCc1[nH]c(=O)c(CCNC(=O)C2Cc3ccccc3CN2C(=O)C(N)Cc2c(C)cc(O)cc2C)nc1C` (stereo not drawn) [compound 65, 3-[Dmt-Tic-NH(CH2)2]-6-[Dmt-Tic-NH(CH2)4]-5-methyl-2(1H)-pyrazinone], the results for the Ki in data set [1] and in data set [4] were 0.107 nM and 1.37 nM, respectively. For the same compound, the IC50 in data set [2] and in data set [3] was more than 10000 nM throughout.
As for `Cc1cc(O)cc(C)c1C[C@H](N)C(=O)N1CCC[C@H]1C(=O)N[C@@H](Cc1ccccc1)C(=O)Nc1cccc2ncccc12` [compound 30, H-Dmt-Pro-Phe-NH-5-Qln], the Ki in data set [1] was 30 nM; in data set [4] it was 0.11 nM. Further, the IC50 is 0.616 nM in data set [2] and 0.26 nM in data set [3].
For the compound `Cc1cc(O)cc(C)c1C[C@H](N)C(=O)N1CCC[C@H]1C(=O)N[C@@H](Cc1ccccc1)C(=O)NCCc1ccccc1` [compound 22, H-Dmt-Pro-Phe-NH-C2H4-Ph] (H-[Dmt]-Pro-Phe-NHPhenethyl), the Ki was 18 nM in data set [1] and 0.51 nM in data set [4]. Moreover, the IC50 is more than 10000 nM in data set [2] and 5.03 nM in data set [3].
As for `Cc1cc(O)cc(C)c1CC(N)C(=O)NCCc1[nH]c(=O)c(CCNC(=O)C(N)Cc2c(C)cc(O)cc2C)nc1C` (stereo not shown) [compound 56, 3,6-bis[Dmt-NH(CH2)2]-5-methyl-2(1H)-pyrazinone], the Ki in data set [1] is 7.26 nM. Moreover, the IC50 in data set [2] was more than 10000 nM; in data set [3], 12.9 nM.
Turning to `Cc1cc(O)cc(C)c1CC(N)C(=O)N1Cc2ccccc2CC1C(=O)NCCCCc1nc(C)c(CCCNC(=O)C2Cc3ccccc3CN2C(=O)C(N)Cc2c(C)cc(O)cc2C)[nH]c1=O` (stereo not drawn) [compound 64, 3-[Dmt-Tic-NH(CH2)4]-6-[Dmt-Tic-NH(CH2)3]-5-methyl-2(1H)-pyrazinone], the Ki was 0.092 nM in data set [1] and 2.28 nM in data set [4]. Moreover, the half-inhibitory concentration (IC50) in data set [2] and in data set [3] was more than 10000 nM in each case.
As for `Cc1cc(O)cc(C)c1CC(N)C(=O)NCCCCc1[nH]c(=O)c(CCCCNC(=O)C(N)Cc2c(C)cc(O)cc2C)nc1C` (stereo not shown) [compound 58, 3,6-bis[Dmt-NH(CH2)4]-5-methyl-2(1H)-pyrazinone], the figures for the Ki in data set [1] and in data set [4] were 23.2 nM and 0.114 nM, respectively. Further, the IC50 in data set [2] is 41.5 nM; in data set [3], 1.9 nM.
Take `Cc1cc(O)cc(C)c1C[C@H](N)C(=O)N1CCC[C@H]1C(=O)N[C@@H](Cc1ccccc1)C(=O)Nc1ccc2ncccc2c1` [compound 31, H-Dmt-Pro-Phe-NH-6-Qln]: the figures for the Ki in data set [1] and in data set [4] were 46.6 nM and 0.22 nM, respectively. Moreover, the IC50 in data set [2] is more than 10000 nM; in data set [3] it was 6.21 nM.
For the compound `Cc1cc(O)cc(C)c1C[C@H](N)C(=O)N1CCC[C@H]1C(=O)N[C@@H](Cc1ccccc1)C(=O)Nc1cccc2ccccc12` [compound 28, H-Dmt-Pro-Phe-NH-1-Nph], the Ki in data set [1] was 19.9 nM. Besides, the figures for the IC50 in data set [2] and in data set [3] were 5.47 nM and 0.49 nM, respectively.
With `Cc1cc(O)cc(C)c1C[C@H](N)C(=O)N1CCC[C@H]1C(=O)N[C@@H](Cc1ccccc1)C(=O)Nc1cccc2cccnc12` [compound 32, H-Dmt-Pro-Phe-NH-8-Qln], the Ki in data set [1] is 33.1 nM; in data set [4], 0.49 nM. Moreover, the results for the IC50 in data set [2] and in data set [3] were 2980 nM and 445 nM, respectively.
Regarding `Cc1cc(O)cc(C)c1C[C@H](N)C(=O)N1Cc2ccccc2C[C@H]1C(=O)NCCCCCCNC(=O)[C@@H]1Cc2ccccc2CN1C(=O)[C@@H](N)Cc1c(C)cc(O)cc1C` [compound 67, bis[Dmt-Tic-NH]hexane], the Ki in data set [1] was 0.129 nM; in data set [4], 1.79 nM. For the same compound, the IC50 in data set [2] is more than 10000 nM.
As for `C=CCNC(Cc1c(C)cc(O)cc1C)C(=O)NCCCCCCNC(=O)C(Cc1c(C)cc(O)cc1C)NCC=C` (stereo not shown) [compound 49, 1,6-bis[N-allyl-Dmt-NH]hexane], the Ki was 51.5 nM in data set [1] and 12.4 nM in data set [4]. Further, the IC50 in data set [2] and in data set [3] was more than 10000 nM each time.
Take `Cc1cc(O)cc(C)c1C[C@H](N)C(=O)N1CCC[C@H]1C(=O)N[C@@H](Cc1ccccc1)C(=O)Nc1cccnc1` [compound 26, H-Dmt-Pro-Phe-NH-3-Pyr]: the Ki in data set [1] was 287 nM; in data set [4] it was 0.17 nM. The IC50 in data set [2] was more than 10000 nM; in data set [3], 72.8 nM.
As for `Cc1cc(O)cc(C)c1CC(N)C(=O)N1Cc2ccccc2CC1C(=O)NCCCc1[nH]c(=O)c(CCCNC(=O)C2Cc3ccccc3CN2C(=O)C(N)Cc2c(C)cc(O)cc2C)nc1C` (stereo not drawn) [compound 61, 3,6-bis[Dmt-Tic-NH(CH2)3]-5-methyl-2(1H)-pyrazinone], the Ki is 0.155 nM in data set [1] and 3.08 nM in data set [4]. Moreover, the concentration for half-maximal inhibition (IC50) was more than 10000 nM in data set [2] and 7020 nM in data set [3].
On to `NC(=O)C(Cc1ccccc1)NC(=O)C(Cc1ccccc1)NC(=O)C1CCCN1C(=O)C(N)Cc1ccc(O)cc1` [compound 12, L-D-L-L (EM-2), [D-Pro^2]EM-2], for which the Ki in data set [4] was 512 nM.
For H-Dmt-Pro-Phe-NH-4-Pyr [compound 25], in data set [1], the Ki was 52.6 nM. Further, the figures for the IC50 in data set [2] and in data set [3] were more than 10000 nM and 11.8 nM, respectively.
For `NC(=O)[C@H](Cc1ccccc1)NC(=O)[C@@H]1CCCN1C(=O)[C@@H](N)Cc1ccc(O)cc1` [compound 18, H-Tyr-Pro-Phe-NH2] (H-Tyr-Pro-Phe-NH2), the Ki in data set [1] is 15900 nM; in data set [4] it was 46.1 nM.
